Data taken from patent US8415380B2 (Hoffmann-La Roche Inc., priority 2007, dated 2013).

Columns and labels:
[1] = target: T1, rat mGlu2 receptor (Rattus norvegicus, UniProt P31421); experiment: [3H]-LY354740 binding on mGlu2 transfected CHO cell membranes; details: 10 nM [3H]-LY354740, mGlu2 transfected CHO cell membranes, room temperature, 1 hour
T1 construct: expressed in transfected cells; membranes prepared
Source text: [^3H]-LY354740 Binding on mGlu2 Transfected CHO Cell Membranes Transfection and Cell Culture
cDNA encoding the rat mGlu2 receptor protein in pBluescript II was subcloned into the eukaryotic expression vector pcDNA I-amp from Invitrogen Ltd (Paisley, UK). This vector construct (pcD1mGR^2) was co-transfected with a psvNeo plasmid encoding the gene for neomycin resistance, into CHO cells by a modified calcium phosphate method described by Chen & Okayama (1988). The cells were maintained in Dulbecco's Modified Eagle medium with reduced L-glutamine (1 mM final concentration), 36 mg/L L-Proline and 10% dialysed foetal calf serum from Gibco-Invitrogen; the medium was supplemented with 500 microM α-methyl-4-carboxyphenylglycine (MCPG). Selection was made in the presence of G-418 (300 ug/ml final concentration). Clones were identified by reverse transcription of 5 μg total RNA, followed by PCR using mGlu2 receptor specific primers 5′-[…]-3′ and 5′-[…]-3′ in 60 mM Tris HCl (pH 10), 15 mM (NH4)2SO4, 2 mM MgCl2, 25 units/ml Taq Polymerase with 30 cycles annealing at 60° C. for 1 min., extention at 72° C. for 30 s, and 1 min. 95° C. denaturation.
Cells, cultured as above, were harvested and washed three times with cold PBS and frozen at −80° C. The pellet was resuspended in cold 20 mM HEPES-NaOH buffer containing 10 mM EDTA (pH 7.4), and homogenised with a polytron (Kinematica, A G, Littau, Switzerland) for 10 s at 10 000 rpm. After centrifugation for 30 min. at 4° C., the pellet was washed once with cold 20 mM HEPES-NaOH buffer containing 0.1 mM EDTA, (pH 7.4). After a second centrifugation for 30 min. at 4° C. the pellet was resuspended in cold 20 mM HEPES-NaOH buffer containing 0.1 mM EDTA, (pH 7.4). Protein content was measured using the Micro BCA method from Pierce-Perbio (Rockford, Ill., USA) using bovine serum albumin as standard.
After thawing, the membranes were resuspended in cold 50 mM Tris-HCl buffer containing 2 mM MgCl2 (pH 7.4) (binding buffer). The final concentration of the membranes in the assays was 25 μg protein/ml. Inhibition experiments were performed with membranes incubated with 10 nM [^3H]-LY354740 at room temperature, for 1 hour, in presence of various concentrations of the compound to be tested. Following the incubations, membranes were filtered onto Whatmann GF/B glass fiber filters or onto GF/B Unifilter plates and washed 5 times with cold binding buffer. Non specific binding was measured in the presence of 10 μM (2S,2′R,3′R)-2-(2′3′-Dicarboxycyclopropyl)glycine (DCG IV from Tocris, Ellisville, Mo. USA). After transfer of the filters into plastic vials containing 10 ml of Ultima-gold scintillation fluid from Perkin-Elmer (Boston, Mass., USA), the radioactivity was measured by liquid scintillation in a Tri-Carb 2500 TR counter (Packard, Zurich, Switzerland). For 96-Unifilter plates the radioactivity was measured after addition of Microscint 40 scintillation fluid (Perkin Elmer, Boston Mass.) using a TopCount NXT (Packard)
The inhibition curves were fitted with a four parameter logistic equation giving IC50 values, and Hill coefficients.

T1 sequence (P31421 19-872): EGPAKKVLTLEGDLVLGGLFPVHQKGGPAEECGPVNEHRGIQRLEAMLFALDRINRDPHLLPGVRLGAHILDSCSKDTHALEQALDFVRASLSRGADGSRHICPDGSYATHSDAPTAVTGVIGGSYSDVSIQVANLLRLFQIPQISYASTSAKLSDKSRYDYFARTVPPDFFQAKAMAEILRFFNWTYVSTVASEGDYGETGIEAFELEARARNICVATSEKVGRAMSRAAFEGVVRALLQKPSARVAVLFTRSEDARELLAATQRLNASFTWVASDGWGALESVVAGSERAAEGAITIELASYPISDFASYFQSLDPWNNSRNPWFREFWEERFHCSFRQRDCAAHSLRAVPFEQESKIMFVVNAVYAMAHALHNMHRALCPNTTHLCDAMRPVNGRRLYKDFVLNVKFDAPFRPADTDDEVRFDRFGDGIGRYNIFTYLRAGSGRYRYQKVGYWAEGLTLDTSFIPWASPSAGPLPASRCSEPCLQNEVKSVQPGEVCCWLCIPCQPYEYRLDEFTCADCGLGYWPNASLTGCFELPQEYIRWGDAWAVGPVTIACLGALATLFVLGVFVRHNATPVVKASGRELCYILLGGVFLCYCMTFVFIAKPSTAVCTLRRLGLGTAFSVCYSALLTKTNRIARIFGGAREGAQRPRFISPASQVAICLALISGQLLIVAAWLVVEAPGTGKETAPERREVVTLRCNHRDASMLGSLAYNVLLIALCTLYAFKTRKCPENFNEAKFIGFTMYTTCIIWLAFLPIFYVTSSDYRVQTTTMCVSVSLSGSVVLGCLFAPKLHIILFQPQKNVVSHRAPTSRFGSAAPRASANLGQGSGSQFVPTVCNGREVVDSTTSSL

## NS(=O)(=O)c1cccc(-c2cn(-c3nc(-c4ccc(Cl)s4)cc(C(F)(F)F)n3)cn2)c1 [Example 1, 3-{1-[4-(5-Chloro-thiophen-2-yl)-6-trifluoromethyl-pyrimidin-2-yl]-1H-imidazol-4-yl}-benzenesulfonamide]
[1]
  Ki: 11.6 nM
other
  melting point: 189 °C

## NS(=O)(=O)c1cccc(-c2cccc(-c3nc(-c4ccc(C(F)(F)F)nc4)cc(C(F)(F)F)n3)c2)c1 [Example 2, 3′-[4-Trifluoromethyl-6-(6-trifluoromethyl-pyridin-3-yl)-pyrimidin-2-yl]-biphenyl-3-sulfonic acid amide]
[1]
  Ki: 1.8 nM
other
  melting point: 211 °C

## NS(=O)(=O)c1ccc(-c2cccc(-c3nc(-c4ccc(C(F)(F)F)nc4)cc(C(F)(F)F)n3)c2)s1 [Example 3, 5-{3-[4-Trifluoromethyl-6-(6-trifluoromethyl-pyridin-3-yl)-pyrimidin-2-yl]-phenyl}-thiophene-2-sulfonic acid amide]
[1]
  Ki: 12 nM
other
  melting point: 250.5 °C

## NS(=O)(=O)c1cccc(-c2cccc(-c3nc(-c4ccc(Cl)s4)cc(C(F)(F)F)n3)c2)c1 [Example 4, 3′-[4-(5-Chloro-thiophen-2-yl)-6-trifluoromethyl-pyrimidin-2-yl]-biphenyl-3-sulfonic acid amide]
[1]
  Ki: 14.3 nM
other
  melting point: 226.5 °C

## Nc1ccc(-c2cccc(-c3nc(-c4ccc(Cl)s4)cc(C(F)(F)F)n3)c2)cn1 [Example 5, 5-{3-[4-(5-Chloro-thiophen-2-yl)-6-trifluoromethyl-pyrimidin-2-yl]-phenyl}-pyridin-2-ylamine]
[1]
  Ki: 139 nM
other
  melting point: 99 °C

## Nc1ccc(-c2cc(-c3nc(-c4ccc(C(F)(F)F)nc4)cc(C(F)(F)F)n3)ccn2)cn1 [Example 8, 4-[4-Trifluoromethyl-6-(6-trifluoromethyl-pyridin-3-yl)-pyrimidin-2-yl]-[2,3′]bipyridinyl-6′-ylamine]
[1]
  Ki: 15.6 nM
other
  melting point: 261.5 °C

## NS(=O)(=O)c1cccc(-c2cc(-c3nc(-c4ccc(C(F)(F)F)nc4)cc(C(F)(F)F)n3)ccn2)c1 [Example 9, 3-{4-[4-Trifluoromethyl-6-(6-trifluoromethyl-pyridin-3-yl)-pyrimidin-2-yl]-pyridin-2-yl}-benzenesulfonamide]
[1]
  Ki: 5.3 nM
other
  melting point: 258 °C

## NS(=O)(=O)c1ccc(-c2cc(-c3nc(-c4ccc(C(F)(F)F)nc4)cc(C(F)(F)F)n3)ccn2)s1 [Example 10, 5-{4-[4-Trifluoromethyl-6-(6-trifluoromethyl-pyridin-3-yl)-pyrimidin-2-yl]-pyridin-2-yl}-thiophene-2-sulfonic acid amide]
[1]
  Ki: 6.6 nM
other
  melting point: 262.5 °C

## Nc1ccc(-c2cccc(-c3nc(-c4ccc(C(F)(F)F)nc4)cc(C(F)(F)F)n3)c2)cn1 [Example 12, 5-{3-[4-Trifluoromethyl-6-(6-trifluoromethyl-pyridin-3-yl)-pyrimidin-2-yl]-phenyl}-pyridin-2-ylamine]
[1]
  Ki: 3.3 nM
other
  melting point: 244 °C

## Nc1ccc(-c2cn(-c3nc(-c4ccc(C(F)(F)F)nc4)cc(C(F)(F)F)n3)cn2)cn1 [Example 13, 5-{1-[4-Trifluoromethyl-6-(6-trifluoromethyl-pyridin-3-yl)-pyrimidin-2-yl]-1H-imidazol-4-yl}-pyridin-2-ylamine]
[1]
  Ki: 33 nM
other
  melting point: 259 °C

## NS(=O)(=O)c1ccc(-c2cc(-c3nc(-c4ccc(C(F)(F)F)nc4)cc(C(F)F)n3)ccn2)s1 [Example 17, 5-{4-[4-Difluoromethyl-6-(6-trifluoromethyl-pyridin-3-yl)-pyrimidin-2-yl]-pyridin-2-yl}-thiophene-2-sulfonic acid amide]
[1]
  Ki: 3.5 nM
other
  melting point: 269.5 °C

## NS(=O)(=O)c1cccc(-c2cn(-c3nc(-c4ccc(C(F)(F)F)nc4)cc(C(F)F)n3)cn2)c1 [Example 19, 3-{1-[4-Difluoromethyl-6-(6-trifluoromethyl-pyridin-3-yl)-pyrimidin-2-yl]-1H-imidazol-4-yl}-benzenesulfonamide]
[1]
  Ki: 15 nM
other
  melting point: 219.5 °C

## Cc1cc(-c2ccc(C(F)(F)F)nc2)nc(-n2cnc(-c3ccc(N)nc3)c2)n1 [Example 20, 5-{1-[4-Methyl-6-(6-trifluoromethyl-pyridin-3-yl)-pyrimidin-2-yl]-1H-imidazol-4-yl}-pyridin-2-ylamine]
[1]
  Ki: 62 nM
other
  melting point: 220 °C

## Cc1cc(-c2ccc(C(F)(F)F)cn2)nc(-c2cccc(-c3cccc(S(=O)(=O)NC(C)(C)C)c3)n2)n1 [Example 25]
[1]
  Ki: 105 nM

## Cc1cc(-c2ccc(C(F)(F)F)nc2)cc(-c2cccc(-c3cccc(S(=O)(=O)NC(C)(C)C)c3)n2)n1 [Example 29, N-tert-Butyl-3-(6′-methyl-6″-trifluoromethyl-[2,2′;4′,3″]terpyridin-6-yl)-benzenesulfonamide]
[1]
  Ki: 26 nM
other
  melting point: 187 to 188 °C

## Cc1cc(-c2ccc(C(F)(F)F)nc2)cc(-c2cccc(-c3cccc(S(N)(=O)=O)c3)n2)n1 [Example 30, 3-(6′-Methyl-6″-trifluoromethyl-[2,2′;4′,3″]terpyridin-6-yl)-benzenesulfonamide]
[1]
  Ki: 2 nM
other
  melting point: 233 to 234 °C

## Cc1cc(-c2ccc(C(F)(F)F)nc2)cc(-c2cccc(-c3ccc(N)nc3)c2)n1 [Example 33, 5-[3-(6′-Methyl-6-trifluoromethyl-[3,4′]bipyridinyl-2′-yl)-phenyl]-pyridin-2-ylamine]
[1]
  Ki: 42 nM
other
  melting point: 124 to 125 °C

## Cc1cc(-c2ccc(C(F)(F)F)nc2)cc(-c2cccc(-c3cccc(S(N)(=O)=O)c3)c2)n1 [Example 34, 3′-(6′-Methyl-6-trifluoromethyl-[3,4′]bipyridinyl-2′-yl)-biphenyl-3-sulfonic acid amide]
other
  melting point: 227 to 232 °C

## Cc1cc(-c2ccc(C(F)(F)F)nc2)cc(-c2cccc(-c3ccc(S(N)(=O)=O)s3)c2)n1 [Example 35, 5-[3-(6′-Methyl-6-trifluoromethyl-[3,4′]bipyridinyl-2′-yl)-phenyl]-thiophene-2-sulfonic acid amide]
other
  melting point: 231 to 233 °C
